Results: PubChem BioAssay (NCI)
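The compound was tested at five concentrations on cells cultured in 96-well plates, with a 48-hour exposure period. Abbreviation: GI50, concentration required for 50% inhibition of growth. At the TGI there is no net growth.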

What was measured:
Experiment in all cases: DTP human tumour cell line panel, 48 h
A498 renal = system: A498 renal
COLO 205 colon = system: COLO 205 colon
U251 CNS = system: U251 CNS
MDA-N = system: MDA-N
NCI/ADR-RES ovarian = system: NCI/ADR-RES ovarian
NCI-H226 lung = system: NCI-H226 lung
HOP-62 NSCLC = system: HOP-62 NSCLC
HOP-92 NSCLC = system: HOP-92 NSCLC
RPMI-8226 leukemia = system: RPMI-8226 leukemia
DU-145 prostate = system: DU-145 prostate
SNB-19 CNS = system: SNB-19 CNS
OVCAR-4 ovarian = system: OVCAR-4 ovarian
SK-MEL-28 melanoma = system: SK-MEL-28 melanoma
IGROV1 ovarian = system: IGROV1 ovarian
BT-549 breast = system: BT-549 breast
CCRF-CEM leukemia = system: CCRF-CEM leukemia
UACC-62 melanoma = system: UACC-62 melanoma
SF-295 CNS = system: SF-295 CNS
HCT-15 colon = system: HCT-15 colon
NCI-H460 lung = system: NCI-H460 lung
NCI-H522 lung = system: NCI-H522 lung
SN12C renal = system: SN12C renal
NCI-H23 lung = system: NCI-H23 lung
ACHN renal = system: ACHN renal
RXF 393 renal = system: RXF 393 renal
MDA-MB-435 = system: MDA-MB-435
SF-268 CNS = system: SF-268 CNS
SW-620 colon = system: SW-620 colon
LOX IMVI melanoma = system: LOX IMVI melanoma
MOLT-4 leukemia = system: MOLT-4 leukemia
MDA-MB-231 breast = system: MDA-MB-231 breast
SK-MEL-5 melanoma = system: SK-MEL-5 melanoma
786-0 renal = system: 786-0 renal
OVCAR-3 ovarian = system: OVCAR-3 ovarian
OVCAR-5 ovarian = system: OVCAR-5 ovarian
A549 NSCLC = system: A549 NSCLC
HT29 colon = system: HT29 colon
KM12 colon = system: KM12 colon
MCF7 breast = system: MCF7 breast
OVCAR-8 ovarian = system: OVCAR-8 ovarian
K-562 leukemia = system: K-562 leukemia
EKVX NSCLC = system: EKVX NSCLC
SNB-75 CNS = system: SNB-75 CNS
TK-10 renal = system: TK-10 renal
T-47D breast = system: T-47D breast
SF-539 CNS = system: SF-539 CNS
HCT-116 colon = system: HCT-116 colon
SK-MEL-2 melanoma = system: SK-MEL-2 melanoma
CAKI-1 renal = system: CAKI-1 renal
UO-31 renal = system: UO-31 renal
UACC-257 melanoma = system: UACC-257 melanoma
M14 melanoma = system: M14 melanoma
MALME-3M melanoma = system: MALME-3M melanoma
SK-OV-3 ovarian = system: SK-OV-3 ovarian
PC-3 prostate = system: PC-3 prostate
HS 578T breast = system: HS 578T breast
HL-60(TB) leukemia = system: HL-60(TB) leukemia

CC(C)(C)OC(=O)CC(NC(=O)OC(C)(C)C)C(=O)Oc1ccc([N+](=O)[O-])cc1 (stereo unspecified)
TGI (A498 renal): > 100 µM
TGI (COLO 205 colon): > 100 µM
TGI (U251 CNS): > 100 µM
TGI (MDA-N): > 100 µM
TGI (NCI/ADR-RES ovarian): > 100 µM
TGI (NCI-H226 lung): > 100 µM
TGI (HOP-62 NSCLC): > 100 µM
TGI (HOP-92 NSCLC): > 100 µM
TGI (RPMI-8226 leukemia): > 100 µM
TGI (DU-145 prostate): > 100 µM
TGI (SNB-19 CNS): > 100 µM
TGI (OVCAR-4 ovarian): > 100 µM
TGI (SK-MEL-28 melanoma): > 100 µM
TGI (IGROV1 ovarian): > 100 µM
TGI (BT-549 breast): > 100 µM
TGI (CCRF-CEM leukemia): > 100 µM
TGI (UACC-62 melanoma): 65.9 µM
TGI (SF-295 CNS): > 100 µM
TGI (HCT-15 colon): > 100 µM
TGI (NCI-H460 lung): > 100 µM
TGI (NCI-H522 lung): > 100 µM
TGI (SN12C renal): > 100 µM
TGI (NCI-H23 lung): > 100 µM
TGI (ACHN renal): > 100 µM
TGI (RXF 393 renal): > 100 µM
TGI (MDA-MB-435): > 100 µM
TGI (SF-268 CNS): > 100 µM
TGI (SW-620 colon): > 100 µM
TGI (LOX IMVI melanoma): > 100 µM
TGI (MOLT-4 leukemia): > 100 µM
TGI (MDA-MB-231 breast): > 100 µM
TGI (SK-MEL-5 melanoma): > 100 µM
TGI (786-0 renal): > 100 µM
TGI (OVCAR-3 ovarian): > 100 µM
TGI (OVCAR-5 ovarian): > 100 µM
TGI (A549 NSCLC): > 100 µM
TGI (HT29 colon): > 100 µM
TGI (KM12 colon): > 100 µM
TGI (MCF7 breast): > 100 µM
TGI (OVCAR-8 ovarian): > 100 µM
TGI (K-562 leukemia): > 100 µM
TGI (EKVX NSCLC): > 100 µM
TGI (SNB-75 CNS): > 100 µM
TGI (TK-10 renal): > 100 µM
TGI (T-47D breast): > 100 µM
TGI (SF-539 CNS): > 100 µM
TGI (HCT-116 colon): > 100 µM
TGI (SK-MEL-2 melanoma): > 100 µM
TGI (CAKI-1 renal): > 100 µM
TGI (UO-31 renal): > 100 µM
TGI (UACC-257 melanoma): > 100 µM
TGI (M14 melanoma): > 100 µM
TGI (MALME-3M melanoma): > 100 µM
TGI (SK-OV-3 ovarian): > 100 µM
TGI (PC-3 prostate): > 100 µM
TGI (HS 578T breast): > 100 µM

CC(=O)Oc1ccc2c3c1[C@@H]1O[C@@H]1c1cccc(c1-3)[C@@H]1O[C@H]21
TGI (A498 renal): 6.57 µM
TGI (COLO 205 colon): 4.36 µM
TGI (MDA-N): 3.32 µM
GI50 (NCI/ADR-RES ovarian): 1.4 µM
TGI (NCI/ADR-RES ovarian): 3.76 µM
TGI (NCI-H226 lung): 84.2 µM
TGI (HOP-62 NSCLC): 3.96 µM
TGI (DU-145 prostate): 4.18 µM
TGI (SNB-19 CNS): 23.1 µM
GI50 (OVCAR-4 ovarian): 2.39 µM
TGI (OVCAR-4 ovarian): 5.48 µM
TGI (BT-549 breast): 3.98 µM
TGI (CCRF-CEM leukemia): 3.94 µM
TGI (UACC-62 melanoma): 3.44 µM
TGI (HL-60(TB) leukemia): 4.87 µM
TGI (SF-295 CNS): 3.83 µM
TGI (ACHN renal): 3.74 µM
TGI (RXF 393 renal): 2.73 µM
GI50 (MDA-MB-435): 1.79 µM
TGI (MDA-MB-435): 3.38 µM
TGI (SF-268 CNS): 5.04 µM
GI50 (LOX IMVI melanoma): 0.65 µM
TGI (LOX IMVI melanoma): 2.02 µM
TGI (MOLT-4 leukemia): > 100 µM
TGI (MDA-MB-231 breast): 3.64 µM
TGI (SK-MEL-5 melanoma): 3.56 µM
TGI (786-0 renal): 3.14 µM
TGI (OVCAR-5 ovarian): 3.42 µM
TGI (KM12 colon): 4.47 µM
TGI (MCF7 breast): > 100 µM
TGI (OVCAR-8 ovarian): 2.85 µM
TGI (K-562 leukemia): > 100 µM
TGI (SNB-75 CNS): 3.07 µM
TGI (TK-10 renal): 6.12 µM
TGI (T-47D breast): 5.42 µM
TGI (HCT-116 colon): 2.87 µM
GI50 (SK-MEL-2 melanoma): 3.12 µM
TGI (SK-MEL-2 melanoma): > 100 µM
TGI (CAKI-1 renal): 3.07 µM
TGI (UO-31 renal): 2.91 µM
GI50 (UACC-257 melanoma): 2.75 µM
TGI (UACC-257 melanoma): > 100 µM
TGI (M14 melanoma): 3.27 µM
TGI (SK-OV-3 ovarian): 9.71 µM
TGI (HS 578T breast): 5.98 µM
